In patent US8906888B2, “Low-calcemic 16,23-diene 25-oxime analogs of 1α,25-dihydroxy vitamin D3” (Cytochroma Inc., priority 2005, dated 2014):

How the values were obtained:
VDR = biological target: T1, VDR (Homo sapiens, UniProt P11473); experiment: VDR binding assay ([3H]-1,25(OH)2D3 displacement); conditions: human recombinant VDR; read-out: B50 (VDR binding, displacement of 50 percent [3H]-1,25(OH)2D3)
T1 construct: purchased Biomol
T1 sequence (P11473 1-427): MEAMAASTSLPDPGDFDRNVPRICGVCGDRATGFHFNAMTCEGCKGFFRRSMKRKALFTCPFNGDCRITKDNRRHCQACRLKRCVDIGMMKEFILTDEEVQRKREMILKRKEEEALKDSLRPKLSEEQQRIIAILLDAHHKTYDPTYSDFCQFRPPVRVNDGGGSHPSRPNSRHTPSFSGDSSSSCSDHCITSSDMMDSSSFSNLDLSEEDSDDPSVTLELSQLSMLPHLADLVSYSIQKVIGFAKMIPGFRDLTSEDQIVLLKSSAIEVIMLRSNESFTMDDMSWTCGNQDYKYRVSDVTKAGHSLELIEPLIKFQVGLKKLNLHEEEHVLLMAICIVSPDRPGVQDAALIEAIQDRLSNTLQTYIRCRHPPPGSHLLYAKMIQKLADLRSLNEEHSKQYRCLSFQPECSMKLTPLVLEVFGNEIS
Method: • 1. VDR 9.4 μmol/μl (human, recombinant, Biomol). • 2. [^3H]-1,25(OH)2D3 in ethanol • 3. 1,25(OH)2D3 in ethanol • 4. TEK300 • Tris-HCl 50 mM • EDTA 1.5 mM • KCl 300 mM • Adjusted pH to 7.4 (25° C.) • 5. TEDK300 • TEK300 • DTT (dithiothreitol) 10 mM (MW 154.24) • 6. Tris buffer • 22.50 g Tris-HCI • 500 ml H2O • 13.25 g Tris-base • 500 ml H2O • Kept in 4° C. • 7. Dextran-T70 (Mol 70,000) Pharmacia • 8. Charcoal (carbon decolorizing neutral, norit) Fisher Scientific • 9. Gelatin (G-2625 Sigma) (ii) Reagent Preparation: 1. Charcoal Dextran Solution
(1) Tris Buffer • Mixed equal amount of Tris-HCl and Tris-base.
(2) Norit decolorizing neutral charcoal 2.0 g • Tris buffer 150 mL • Stirred
(3) Dextran T-70 0.2 g • Tris buffer 50 ml.
(4) Slowly dripped the suspended dextran into charcoal solution with stirring. • Kept in refrigerator overnight. • Thirty minutes before use, stored on ice with continuous mixing. 2. […]
• Pipetted 100 μL of the upper, aqueous phase to a 24 well scintillation counting plate and added 600 μL scintillation fluid per well, covered and mixed well. Counted the plate using a scintillation counter for 5 min/sample. (iv) Calculations: • The amount of 1,25(OH)2D3 to displace 50 percent [^3H]-1,25(OH)2D3 from VDR was calculated as B50 for 1,25(OH)2D3. The VDR binding of other compounds was calculated as B50 relative to a value of 1 for 1,25(OH)2D3. • Serial Dilution of 1,25(OH)D3

CYP24 mRNA = experiment: CYP24 transcriptional activation assay in U-937 cells (real time PCR); format: cell-based, human; conditions: six hours, normalized to GAPDH, 100 nM calcitriol set to 100%
Method: 1α,25(OH)2D3 1 mM reconstituted in isopropanol
• Sodium pyruvate • Non-essential amino acids • HEPES • 10% fetal bovine serum Phorbol 12-myristate 13-acetate (PMA) 24-well plate Isopropanol TRIzol® reagent (Invitrogen) Chloroform Ethanol Diethylpyrocarbonate treated dH2O Thermoscript™ RT-PCR System kit (Invitrogen) Human CYP24 TaqMan® Probe (Applied Biosystems Inc) Human GAPDH TaqMan® Probe (Applied Biosystems Inc) TaqMan® Universal Master Mix Probe (Applied Biosystems Inc) (ii) Procedure:
1. Cell Culture, Stimulation and Plating • Cultured U-937 cells in 4+RPMI media to a level of ≈80% confluence. Pelleted cells by centrifugation and resuspended to a concentration of 5×10^5 cells per 1 ml media. Treated U-937 cells with a final concentration of PMA of 20 ng/ml. To each well, of a 24-well plate, added 1 ml of cell suspension and incubated overnight at 37° C., in a humidified atmosphere containing 5% CO2, for adherence of cells to the wells.
2. Cell Treatment and TRIzol® Addition • Changed the media with 1 ml of fresh 4+RPMI media. Added 1 μl of the working solutions of 1, 10, and 100 μM of the compound being tested, in triplicate. Added 1 μl of isopropanol as a control, in triplicate. Incubated the cells for six hours at 37° C., in a humidified atmosphere containing 5% CO2, aspirated off the media and then added 1 ml of TRIzol® reagent. Transferred TRIzol® with cell lysate to a 1.7 ml microcentrifuge tube and stored at −80° C.
3. […] Determined the concentration of RNA using a spectrophotometer to measure the optical density of each sample, at a wavelength of 260 nm. […]
4. CYP24/GAPDH Real Time PCR • Determined the amount of CYP24 and GAPDH mRNA present in each sample using commercial TaqMan® probes, from Applied Biosystems Inc. (Foster City, Calif.). Detected both genes in the same 20 μl reaction, using an ABI PRISM 96-well optical reaction plate and cycle 50 times using an ABI Prism 7000 Sequence Detection System® (ABI). […]

C=C1/C(=C\C=C2/CCC[C@]3(C)C([C@H](C)C/C=C/C(=NOC)C(C)(C)C)=CC[C@@H]23)C[C@@H](O)C[C@@H]1O [(20R)-I(e)]
IC50 (VDR): 60 nM | CYP24 mRNA induction, activity as % of that for calcitriol at 100 nM (CYP24 mRNA): 65%
